Source: US20240279202A1 (NURIX THERAPEUTICS, INC., priority 2021, published 2024)

Legend:
[1] = Mouse PK analysis (blood/plasma concentration after oral administration); type: in vivo; details: mouse; mice, oral, plasma
Procedure: Compounds 1, 3, 7, and 42 were formulated and administered at 90 mg/kg to mice by oral gavage (PO). Blood was collected at defined time points (after 1, 2, and 6 hours) after compounds administration to determine PK parameters. Concentration increased through 6 hours. Six hours later mice were sacrificed and splenocytes were isolated and used to prepare protein lysates. Total protein levels were determined in the lysates using the BCA assay according to standard methods. Equal amounts of protein were then analyzed by Western blot to determine the level of ITK expression in each sample. ITK band intensities were measured using Alpha View software and the percent of ITK remaining in each test animal was determined relative to the mean of ITK levels in vehicle control samples.
Compounds 16, 17, and 18 were administered to mice orally. After 6 hours or 24 hours, splenocytes cells were harvested. ITK was evaluated by Western blotting. Plasma concentrations were determined by LC/MS/MS. Plasma samples were protein precipitated by addition of 100 μl of acetonitrile containing 50 ng/ml of internal standard. The resulting mixture was vortexed and centrifuged at 4000 RPM for 5 minutes. An aliquot of the resultant supernatant (75 μl) was added to 75 μl of 0.1% formic acid in water to constitute the final sample for injection. Samples were injected on a Shimadzu Exion LC Binary Gradient AD Pump HLPC system connected to a Sciex QTRAP 6500+mass spectrometer. Five μl of sample was injected onto a Waters Acquity UPLC BEH C18 column 130A (2.1×30 mm, […]) at 40° C. utilizing a flow rate of 700 μl/minute. Mobile Phase A was 0.1% formic acid in water and mobile phase B was 0.1% formic acid in acetonitrile. A linear gradient of 15-95% B over 1.0 minute was used. The mass spectrometer was operated in positive ion electrospray mode with multiple reaction monitoring for maximum sensitivity. Sciex Analyst software (version 1.6.3) was used for LC/MS/MS instrument control and acquisition. Compound concentration was determined against a standard curve of internal standard versus compound peak area ratio. Noncompartmental PK parameters were determined using […] software (version 8.2.0.4383) from Certara. Plasma concentrations from the LC/MS/MS analyses, dose, route of administration, and desired units were utilized for PK parameter calculations. […] FIG. 4C provides the concentration over time of compound 17 following in vivo oral administration in the 6 hour and 24 hour assays.
Cmax, Tmax and AUClast were all calculated using a WinNonLin Phoenix 64 v 8.2.0.4383. Using non-compartmental analysis, Tmax, Cmax and AUClast were determined as follows: • Tmax—Time of maximum observed concentration. • Cmax—Maximum observed concentration, occurring at time Tmax, as defined above. • AUClast—Area under the curve from the time of dosing to the time of the last measurable (positive) concentration (Tlast).

ITK = biological target: T1, ITK (Homo sapiens, UniProt Q08881); test: ITK degradation HiBiT assay; type: cell-based; parameters: expressed in transfected cells; host or cells: Molt4 (ATCC CRL-1552), monoclonal clone 1C10, engineered to carry the HiBiT tag; details: 4 hrs; for DC50: C-terminal HiBiT-tagged Molt4 cells; for Dmax: MOLT-4, C-terminal HiBiT-tagged Molt4 cells
T1 sequence (Q08881 1-620): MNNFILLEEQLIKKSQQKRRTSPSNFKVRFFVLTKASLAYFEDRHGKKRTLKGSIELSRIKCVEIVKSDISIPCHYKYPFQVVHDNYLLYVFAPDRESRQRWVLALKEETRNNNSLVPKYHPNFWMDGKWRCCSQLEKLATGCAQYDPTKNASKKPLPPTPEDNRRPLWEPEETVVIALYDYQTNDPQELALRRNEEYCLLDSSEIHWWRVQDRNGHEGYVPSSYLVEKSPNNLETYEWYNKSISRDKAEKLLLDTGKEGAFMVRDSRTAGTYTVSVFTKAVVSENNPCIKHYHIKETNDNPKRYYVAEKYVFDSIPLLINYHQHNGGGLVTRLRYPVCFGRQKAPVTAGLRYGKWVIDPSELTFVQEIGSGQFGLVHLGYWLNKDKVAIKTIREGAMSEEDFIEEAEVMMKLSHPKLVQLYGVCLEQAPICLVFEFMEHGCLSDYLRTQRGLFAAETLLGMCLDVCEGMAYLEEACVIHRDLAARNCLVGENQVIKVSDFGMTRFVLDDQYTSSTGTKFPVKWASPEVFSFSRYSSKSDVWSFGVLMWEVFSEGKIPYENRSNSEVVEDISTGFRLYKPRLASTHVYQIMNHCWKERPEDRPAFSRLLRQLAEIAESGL
Procedure, shortened: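 C-terminal HiBiT-tagged Molt4 cells (clone 1C10) treated 4 h at 32° C with an 11-point, 5-fold compound dilution series (0.5% DMSO). HiBiT lytic detection with LgBiT then luminescence read; % ITK remaining versus concentration fit by four-parameter variable-slope model to give DC50 and Dmax.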

With `CC1(C)CCc2c(-c3cc4ccc(C(=O)N5CCC(C6CCN(c7ccc(C8CCC(=O)NC8=O)cn7)CC6)CC5)cc4[nH]3)n[nH]c2C1` (stereo not shown) [Compound 58, 3-(6-(1′-(2-(6,6-dimethyl-4,5,6,7-tetrahydro-1H-indazol-3-yl)-1H-indole-6-carbonyl)-[4,4′-bipiperidin]-1-yl)pyridin-3-yl)piperidine-2,6-dione] the AUC(0-t) [1] was 0.18 µM·h, the Cmax [1] was 61 nM and the Tmax [1] was 1.5 h. The DC50 (ITK) was 13.4 nM and the Dmax (ITK) was 69%.

For `C[C@@]12Cc3[nH]nc(C(=O)Nc4cnn([C@H](c5ccccc5)C5CN(C(=O)C6CN(c7ccc(C8CCC(=O)NC8=O)cn7)C6)C5)c4)c3C[C@@H]1C2(F)F` (stereo partly drawn) [Compound 51, (4aS,5aR)-N-(1-((1S)-(1-(1-(5-(2,6-dioxopiperidin-3-yl)pyridin-2-yl)azetidine-3-carbonyl)azetidin-3-yl)(phenyl)methyl)-1H-pyrazol-4-yl)-5,5-difluoro-5a-methyl-1,4,4a,5,5a,6-hexahydrocyclopropa[f]indazole-3-carboxamide], the AUC(0-t) [1] was 2.34 µM·h, the Cmax [1] was 720 nM and the Tmax [1] was 6 h.

Molecule `C[C@@]12Cc3[nH]nc(-c4nc5ccc(C(=O)N6CCN(CC7CCN(c8ccc(C9CCC(=O)NC9=O)cc8)CC7)CC6)cc5[nH]4)c3C[C@@H]1C2(F)F` (mixture of isomers) [Compound 227, (3RS)-3-(4-{4-[(4-{2-[(4aS,5aR)-5,5-difluoro-5a-methyl-1H,4H,4aH,6H-cyclopropa [f]indazol-3-yl]-3H-1,3-benzodiazole-5-carbonyl}piperazin-1-yl)methyl]piperidin-1-yl}phenyl)piperidine-2,6-dione] has a DC50 (ITK) of 0.6 nM and a Dmax (ITK) of 87%.

With `C[C@@]12Cc3[nH]nc(C(=O)Nc4cnn(C5CCN(C(=O)C6CCC(Cn7cc8cc(C9CCC(=O)NC9=O)ccc8n7)CC6)CC5)c4)c3C[C@@H]1C2(F)F` (mixture of isomers) [Compound 165] the Dmax (ITK) was 86%.

For `C[C@@]12Cc3[nH]nc(C(=O)Nc4cnn(C5CCN(CC6CCN(c7ccc(C8CCC(=O)NC8=O)cc7)CC6)CC5)c4)c3C[C@@H]1C2(F)F` (stereo partly drawn) [Compound 92, (4aS,5aR)-N-(1-(1-((1-(4-(2,6-dioxopiperidin-3-yl)phenyl)piperidin-4-yl)methyl)piperidin-4-yl)-1H-pyrazol-4-yl)-5,5-difluoro-5a-methyl-1,4,4a,5,5a,6-hexahydrocyclopropa[f]indazole-3-carboxamide], the DC50 (ITK) was < 0.01 nM and the Dmax (ITK) was 89%.

Molecule `CC1(C)CCc2c(-c3cc4ccc(C(=O)N5CCN(CC6CCN(c7ncc(C8CCC(=O)NC8=O)cn7)CC6)CC5)cc4[nH]3)n[nH]c2C1` (stereo not shown) [Compound 187] has a Dmax (ITK) of 70%.

`C[C@@]12Cc3[nH]nc(-c4cc5cc(F)c(C(=O)N6CCN(C[C@H]7CCN(c8ccc(C9CCC(=O)NC9=O)cc8)C7)CC6)cc5[nH]4)c3C[C@@H]1C2(F)F` (stereo partly shown) [Compound 145] gave a Dmax (ITK) of 75%.

`C[C@@]12Cc3[nH]nc(C(=O)Nc4cnn([C@H]5CCN(C[C@H]6CCN(c7ccc(C8CCC(=O)NC8=O)cc7)C6)C[C@@H]5F)c4)c3C[C@@H]1C2(F)F` (stereo partly drawn) [Compound 98, (4aS,5aR)-N-(1-((3S,4S)-1-(((3R)-1-(4-(2,6-dioxopiperidin-3-yl)phenyl)pyrrolidin-3-yl)methyl)-3-fluoropiperidin-4-yl)-1H-pyrazol-4-yl)-5,5-difluoro-5a-methyl-1,4,4a,5,5a,6-hexahydrocyclopropa[f]indazole-3-carboxamide] showed a DC50 (ITK) of 0.7 nM and a Dmax (ITK) of 89%.

Work on `C[C@@]12Cc3[nH]nc(-c4cc5ccc(C(=O)N6CCN(CC7CCN(c8ccc(C9CCC(=O)NC9=O)cc8)CC7)CC6)cc5[nH]4)c3C[C@@H]1C2` (mixture of isomers) [Compound 225, (3RS)-3-(4-{4-[(4-{2-[(4aS,5aR)-5a-Methyl-1H,4H,4aH,5H,6H-cyclopropa[f]indazol-3-yl]-1H-indole-6-carbonyl}piperazin-1-yl)methyl]piperidin-1-yl}phenyl)piperidine-2,6-dione] yielded a DC50 (ITK) of 8.5 nM and a Dmax (ITK) of 84%.

In the case of `CC1(C)CCc2c(-c3cc4ccc(C(=O)N5CCN(CC6CCN(c7ccc8c(c7)CN(C7CCC(=O)NC7=O)C8=O)CC6)CC5)cc4[nH]3)n[nH]c2C1` (stereo not shown) [Compound 26, 3-{5-[4-({4-[2-(6,6-dimethyl-1,4,5,7-tetrahydroindazol-3-yl)-1H-indole-6-carbonyl]piperazin-1-yl}methyl)piperidin-1-yl]-1-oxo-3H-isoindol-2-yl}piperidine-2,6-dione], the DC50 (ITK) was < 0.01 nM and the Dmax (ITK) was 88%.

Work on `C[C@@H]1CN(C(=O)c2ccc3cc(-c4n[nH]c5c4C[C@@H]4C(F)(F)[C@]4(C)C5)[nH]c3c2)CCN1CC1CCN(c2ccc(C3CCC(=O)NC3=O)c(F)c2)CC1` (stereo partly shown) [Compound 160] yielded a Dmax (ITK) of 83%.

Work on `C[C@@]12Cc3[nH]nc(C(=O)Nc4cnn(CC5CCN(C(=O)C6CCN(c7ccc(N8CCC(=O)NC8=O)cc7)CC6)CC5)c4)c3C[C@@H]1C2(F)F` [Compound 172] yielded a Dmax (ITK) of 75%.

In the case of `C[C@@]12Cc3[nH]nc(-c4cc5cc(F)c(C(=O)N6CCN(C[C@@H]7CCN(c8ccc(C9CCC(=O)NC9=O)cc8)C7)CC6)cc5[nH]4)c3C[C@@H]1C2(F)F` (stereo partly shown) [Compound 146], the Dmax (ITK) was 73%.

For `C[C@@]12Cc3[nH]nc(C(=O)Nc4cnn([C@@H]5CCN(CC6CCN(c7ccc(C(=O)N[C@H]8CCC(=O)NC8=O)nc7)CC6)C[C@H]5F)c4)c3C[C@@H]1C2(F)F` [Compound 94, (4aS,5aR)-N-(1-((3R,4R)-1-((1-(6-(((S)-2,6-dioxopiperidin-3-yl)carbamoyl)pyridin-3-yl)piperidin-4-yl)methyl)-3-fluoropiperidin-4-yl)-1H-pyrazol-4-yl)-5,5-difluoro-5a-methyl-1,4,4a,5,5a,6-hexahydrocyclopropa[f]indazole-3-carboxamide], the DC50 (ITK) was 3.4 nM and the Dmax (ITK) was 83%.

In the case of `C[C@@]12Cc3[nH]nc(-c4cc5cc(C(=O)N6CCN(CC7(F)CCN(c8ccc(C9CCC(=O)NC9=O)cc8)CC7)CC6)ccc5[nH]4)c3C[C@@H]1C2(F)F` (stereo partly shown) [Compound 141], the Dmax (ITK) was 86%.

Work on `C[C@H]1CN(CC2CCN(c3ccc(C4CCC(=O)NC4=O)cn3)CC2)CCN1C(=O)c1ccc2cc(-c3n[nH]c4c3CCC(C)(C)C4)[nH]c2c1` (stereo partly drawn) [Compound 130, 3-(6-(4-(((S)-4-(2-(6,6-dimethyl-4,5,6,7-tetrahydro-1H-indazol-3-yl)-1H-indole-6-carbonyl)-3-methylpiperazin-1-yl)methyl)piperidin-1-yl)pyridin-3-yl)piperidine-2,6-dione] yielded a DC50 (ITK) of 5.5 nM and a Dmax (ITK) of 85%.

Work on `CC1(C)CCc2c(-c3cc4ccc(C(=O)N5CCN(CC6CCN(c7ccc(C8CCC(=O)NC8=O)c(F)c7)CC6)CC5)cc4[nH]3)n[nH]c2C1` (stereo not shown) [Compound 221, 3-(4-(4-((4-(2-(6,6-dimethyl-4,5,6,7-tetrahydro-1H-indazol-3-yl)-1H-indole-6-carbonyl)piperazin-1-yl)methyl)piperidin-1-yl)-2-fluorophenyl)piperidine-2,6-dione] yielded a DC50 (ITK) of 3.57 nM and a Dmax (ITK) of 84%.
